From US7528169B2, “Substance having antitumor/anti-inflammatory activity” (Riken, priority 2001, dated 2009)

Columns and labels:
[1] = tested on: MCF-7 cells derived from human mammary cancer; assay: Inhibitory effect on proliferation of tumor cells (MTT survival rate) under 1% or 20% oxygen; assay type: cell-based; settings: 10 to 100 μg/ml, 48 hours, 1% oxygen vs 20% oxygen
Method: MCF-7 cells derived from human mammary cancer were cultured in a RPMI medium (containing 5% bovine fetal serum). The cells were added with RKB-3564S and RKB-3564SAC in a series of dilution, cultured under the condition of 1% oxygen concentration or 20% oxygen concentration for 48 hours, then added with MTT reagent [3-(4,5-dimethyl-thiazol-2-yl)-2,5-diphenyltetrazolium bromide], and further cultured for 2 to 4 hours, and then the absorption at 570 nm was measured to calculate the survival rate.

NF-κB = assay: Inhibitory effect on NF-κB activation by TPA (luciferase reporter, pGL3-NF1, in COS-7 cells); assay type: cell-based; settings: TPA 50 ng/ml, 10 to 100 μg/ml, 24 hours
Method: COS-7 cells maintained in a DMEM medium (containing 5% bovine fetal serum) were transfected with a plasmid (pGL3-NF1) containing 5xNF-κB binding sequence (5′-[…]-3′) (SEQ ID NO: 1) located upstream of the luciferase gene. The cells were added with TPA (50 ng/ml) and RKB-3564S and RKB-3564SAC in a series of dilution, and cultured for 24 hours, and then the activity of produced luciferase was measured to calculate the inhibitory effect on NF-κB activation by TPA.

[2] = Solubility (physico-chemical properties); assay type: physicochemical
Method: The physico-chemical properties of […] are shown below. • Appearance: colorless powdery crystals • Melting point: 71.5-72° C. (dec.) • Molecular formula: C10H12O2 • High-resolution mass spectrum (HR-RABMS): (M+H)^+Found (m/z): 165.0868 Calcd. […] Insoluble in n-hexane.

C/C=C/c1cccc(OC(C)=O)c1COC(C)=O [RKB-3564SAC]
inhibition of cell proliferation under 1% oxygen compared to 20% oxygen [1]: significantly inhibited cell proliferation | inhibition of transcription activation by NF-κB (NF-κB): inhibited transcription activation by NF-κB

C/C=C/c1cccc(O)c1CO [RKB-3564S]
inhibition of cell proliferation under 1% oxygen compared to 20% oxygen [1]: significantly inhibited cell proliferation | inhibition of transcription activation by NF-κB (NF-κB): inhibited transcription activation by NF-κB | Solubility in methanol or dimethyl sulfoxide ([2]; methanol or dimethyl sulfoxide): easily soluble | Solubility in n-hexane ([2]; n-hexane): Insoluble
